Patent US12458651B2, “Compounds and their uses for alleviating menopause-associated symptoms” (ESTETRA SRL, priority 2018, dated 2025)
Read-outs that look alike come from different tables or passages of the source.

Experiments:
post-menopausal women [1] = experiment: GSM symptom: vaginal and/or vulvar irritation/itching; type: in vivo
Protocol: (§1) Change from baseline to week 12 in the following GSM symptoms (VVA subject self-assessment) were recorded: • a) Vaginal dryness (sensation of dryness or burning in the vagina; none=0 mild=1, moderate=2 or severe=3):
• b) Vaginal and/or vulvar irritation/itching (sensation of abnormal irritation or sensitive condition in the vagina; none=0, mild=1, moderate=2 or severe=3): […]

post-menopausal women [2] = experiment: GSM symptom: vaginal pain associated with sexual activity; type: in vivo
Protocol: as §1
• d) Vaginal pain associated with sexual activity (sensation of pain with sexual intercourse none=0, mild=1, moderate=2 or severe=3): […]

post-menopausal women [3] = experiment: Adverse events (AEs, TEAEs) in the dose-finding study; type: in vivo
Text: This is confirmed by the following statistical analysis. Using a Poisson regression model with a random effect for the patient and treatment group as a covariate to model the count of TEAEs in the different treatment groups, it can be shown that there is no statistical difference between the treatment groups (p value of 0.099). Second, a chi-square test was used to assess if the prevalence of patients reporting TEAEs in each treatment group was similar. No statistical difference was found between the treatment groups (p value of 0.575).

postmenopausal women [4] = conditions: cited from earlier work
post-menopausal women [5] = experiment: GSM symptom: dysuria; type: in vivo
Protocol: as §1
• c) Dysuria (sensation of pain or difficulty in urinating; none=0, mild=1, moderate=2 or severe=3): […]

post-menopausal women [6] = experiment: GSM symptom (VVA self-assessment): vaginal dryness; type: in vivo
Protocol: Change from baseline to week 12 in the following GSM symptoms (VVA subject self-assessment) were recorded: • a) Vaginal dryness (sensation of dryness or burning in the vagina; none=0 mild=1, moderate=2 or severe=3): […]

[7] = test system: C-terminal telopeptide (CTX-1); experiment: C-terminal telopeptide (CTX-1), marker of bone resorption; type: in vivo
postmenopausal women [8] = conditions: 2 mg estetrol per day for 28 days; cited from earlier work
[9] = Triglycerides level at 15 mg and 20 mg daily doses; type: in vivo; conditions: 20 mg daily dose in place of 15 mg daily dose
Protocol: In order to better assess the potential for increasing the daily dose beyond the minimum effective dose of 15 mg daily, a number of parameters were followed in a study where estetrol was administered at the increased dose of 20 mg per day.
1. Triglycerides Level (mmol/L)

post-menopausal women [10] = experiment: Dose-finding study: hot flush weekly weighted score; type: in vivo
Protocol: Further, the terms “Hot Flush Weekly Weighted Score”, as used herein, corresponds to a score taking into account frequency and severity which is calculated by using the severity score (as calculated above): [(1×No. of mild VMS)+(2×No. of moderate VMS)+(3×No. of severe VMS)] during a 7 day period.
Such a weighted score was for example used by Notelovitz et al. (“Initial 17β-Estradiol Dose for Treating Vasomotor Symptoms”; Obstetrics and Gynaecology, Vol. 95(5), May 2000, p. 726-731). This score was used to generate the data included in Example 1 further below, under section A. c) “Hot Flush Weekly Weighted Score”.

Lipid parameters (triglycerides, cholesterol, HDL, LDL) and glucose level [9]: do not behave significantly differently
SMILES: C[C@]12CC[C@@H]3c4ccc(O)cc4CC[C@H]3[C@@H]1[C@@H](O)[C@@H](O)[C@@H]2O [Estetrol, 1,3,5 (10)-estratrien-3,15alpha,16alpha,17beta-tetrol]
Vaginal and/or vulvar irritation/itching score (none=0 to severe=3), mean ± SD (post-menopausal women [1]; E4 2.5 mg, Baseline): 0.7 ± 0.96
Vaginal and/or vulvar irritation/itching score (none=0 to severe=3), mean ± SD (post-menopausal women [1]; E4 2.5 mg, Week 12): 0.3 ± 0.60
Vaginal and/or vulvar irritation/itching score (none=0 to severe=3), mean ± SD (post-menopausal women [1]; E4 5 mg, Baseline): 0.6 ± 0.90
Vaginal and/or vulvar irritation/itching score (none=0 to severe=3), mean ± SD (post-menopausal women [1]; E4 5 mg, Week 12): 0.4 ± 0.65
Vaginal and/or vulvar irritation/itching score (none=0 to severe=3), mean ± SD (post-menopausal women [1]; E4 10 mg, Baseline): 0.7 ± 0.87
Vaginal and/or vulvar irritation/itching score (none=0 to severe=3), mean ± SD (post-menopausal women [1]; E4 10 mg, Week 12): 0.3 ± 0.64
Vaginal and/or vulvar irritation/itching score (none=0 to severe=3), mean ± SD (post-menopausal women [1]; E4 15 mg, Baseline): 0.5 ± 0.85
Vaginal and/or vulvar irritation/itching score (none=0 to severe=3), mean ± SD (post-menopausal women [1]; E4 15 mg, Week 12): 0.4 ± 0.70
Vaginal pain associated with sexual activity score (none=0 to severe=3), mean ± SD (post-menopausal women [2]; E4 2.5 mg, Baseline): 0.6 ± 0.77
Vaginal pain associated with sexual activity score (none=0 to severe=3), mean ± SD (post-menopausal women [2]; E4 2.5 mg, Week 12): 0.3 ± 0.73
Vaginal pain associated with sexual activity score (none=0 to severe=3), mean ± SD (post-menopausal women [2]; E4 5 mg, Baseline): 1 ± 1.07
Vaginal pain associated with sexual activity score (none=0 to severe=3), mean ± SD (post-menopausal women [2]; E4 5 mg, Week 12): 0.5 ± 0.78
Vaginal pain associated with sexual activity score (none=0 to severe=3), mean ± SD (post-menopausal women [2]; E4 10 mg, Baseline): 0.6 ± 0.77
Vaginal pain associated with sexual activity score (none=0 to severe=3), mean ± SD (post-menopausal women [2]; E4 10 mg, Week 12): 0.2 ± 0.36
Vaginal pain associated with sexual activity score (none=0 to severe=3), mean ± SD (post-menopausal women [2]; E4 15 mg, Baseline): 0.7 ± 0.90
Vaginal pain associated with sexual activity score (none=0 to severe=3), mean ± SD (post-menopausal women [2]; E4 15 mg, Week 12): 0.3 ± 0.54
Percentage of patients with TEAE leading to Study Discontinuation (post-menopausal women [3]; 2.5 mg group): 1.9%
Percentage of patients with severe TEAE (post-menopausal women [3]; 2.5 mg group): 7.7%
Percentage of patients with TEAE leading to Study Discontinuation (post-menopausal women [3]; 5 mg group): 6.4%
Percentage of patients with severe TEAE (post-menopausal women [3]; 5 mg group): 10.6%
Average AEs per patient (patients who had AEs) (post-menopausal women [3]; 10 mg group): 3.2
Percentage of patients with TEAE leading to Study Discontinuation (post-menopausal women [3]; 10 mg group): 5.6%
Percentage of patients with severe TEAE (post-menopausal women [3]; 10 mg group): 7.4%
Average AEs per patient (patients who had AEs) (post-menopausal women [3]; 15 mg group): 2.6
Percentage of patients with TEAE leading to Study Discontinuation (post-menopausal women [3]; 15 mg group): 4.1%
Percentage of patients with severe TEAE (post-menopausal women [3]; 15 mg group): 6.1%
Endometrial thickness (postmenopausal women [4]; 2 mg estetrol per day): stable
Endometrial thickness (postmenopausal women [4]; 10 mg estetrol per day): increasing
Dysuria score (none=0 to severe=3), mean ± SD (post-menopausal women [5]; E4 2.5 mg, Baseline): 0.2 ± 0.56
Dysuria score (none=0 to severe=3), mean ± SD (post-menopausal women [5]; E4 2.5 mg, Week 12): 0 ± 0.19
Dysuria score (none=0 to severe=3), mean ± SD (post-menopausal women [5]; E4 5 mg, Baseline): 0.2 ± 0.56
Dysuria score (none=0 to severe=3), mean ± SD (post-menopausal women [5]; E4 5 mg, Week 12): 0 ± 0.20
Dysuria score (none=0 to severe=3), mean ± SD (post-menopausal women [5]; E4 10 mg, Baseline): 0.2 ± 0.58
Dysuria score (none=0 to severe=3), mean ± SD (post-menopausal women [5]; E4 10 mg, Week 12): 0.1 ± 0.23
Dysuria score (none=0 to severe=3), mean ± SD (post-menopausal women [5]; E4 15 mg, Baseline): 0.3 ± 0.58
Dysuria score (none=0 to severe=3), mean ± SD (post-menopausal women [5]; E4 15 mg, Week 12): 0.3 ± 0.61
Vaginal dryness score (none=0 to severe=3), mean ± SD (post-menopausal women [6]; E4 2.5 mg, Baseline): 1 ± 0.90
Vaginal dryness score (none=0 to severe=3), mean ± SD (post-menopausal women [6]; E4 2.5 mg, Week 12): 0.5 ± 0.77
Vaginal dryness score (none=0 to severe=3), mean ± SD (post-menopausal women [6]; E4 5 mg, Baseline): 1.3 ± 0.94
Vaginal dryness score (none=0 to severe=3), mean ± SD (post-menopausal women [6]; E4 5 mg, Week 12): 0.7 ± 0.86
Vaginal dryness score (none=0 to severe=3), mean ± SD (post-menopausal women [6]; E4 10 mg, Baseline): 1 ± 0.93
Vaginal dryness score (none=0 to severe=3), mean ± SD (post-menopausal women [6]; E4 10 mg, Week 12): 0.5 ± 0.75
Vaginal dryness score (none=0 to severe=3), mean ± SD (post-menopausal women [6]; E4 15 mg, Baseline): 1.1 ± 1.04
Vaginal dryness score (none=0 to severe=3), mean ± SD (post-menopausal women [6]; E4 15 mg, Week 12): 0.5 ± 0.68
Bone resorption (CTX-1), decrease compared with 15 mg daily dose ([7]; 20 mg daily dose, after 28 days of treatment): more pronounced
C-Terminal Telopeptide (CTX-1), Baseline, Mean ([7]; E4 15 mg daily): 416.0 ng/L
C-Terminal Telopeptide (CTX-1), Baseline, Median ([7]; E4 15 mg daily): 339.0 ng/L
C-Terminal Telopeptide (CTX-1), End Of Treatment Actual Change from Baseline, Mean ([7]; E4 15 mg daily, after 12 weeks): -95.0 ng/L
C-Terminal Telopeptide (CTX-1), End Of Treatment Actual Change from Baseline, Median ([7]; E4 15 mg daily, after 12 weeks): -142.5 ng/L
C-Terminal Telopeptide (CTX-1), End Of Treatment Actual Value, Mean ([7]; E4 15 mg daily, after 12 weeks): 320.9 ng/L
C-Terminal Telopeptide (CTX-1), End Of Treatment Actual Value, Median ([7]; E4 15 mg daily, after 12 weeks): 197.5 ng/L
C-Terminal Telopeptide (CTX-1), Baseline, Mean ([7]; E4 20 mg daily): 422.50 ng/L
C-Terminal Telopeptide (CTX-1), Baseline, Median ([7]; E4 20 mg daily): 416.5 ng/L
C-Terminal Telopeptide (CTX-1), End Of Treatment Actual Change from Baseline, Mean ([7]; E4 20 mg daily, after 28 days): -147.60 ng/L
C-Terminal Telopeptide (CTX-1), End Of Treatment Actual Change from Baseline, Median ([7]; E4 20 mg daily, after 28 days): -138.0 ng/L
C-Terminal Telopeptide (CTX-1), End Of Treatment Actual Value, Mean ([7]; E4 20 mg daily, after 28 days): 274.9 ng/L
C-Terminal Telopeptide (CTX-1), End Of Treatment Actual Value, Median ([7]; E4 20 mg daily, after 28 days): 267.50 ng/L
Mean number of hot flushes and sweating (postmenopausal women [8]): decrease
Relative change (% from baseline) in hot flush weekly weighted score, mean (post-menopausal women [10]; 10 mg per day, week 0): 0%
Relative change (% from baseline) in hot flush weekly weighted score, mean (section B analysis) (post-menopausal women [10]; 10 mg per day, week 0): 0%
Relative change (% from baseline) in hot flush weekly weighted score, mean (section B analysis) (post-menopausal women [10]; 10 mg per day, week 1): −20%
Relative change (% from baseline) in hot flush weekly weighted score, mean (section B analysis) (post-menopausal women [10]; 10 mg per day, week 2): −34%
Relative change (% from baseline) in hot flush weekly weighted score, mean (section B analysis) (post-menopausal women [10]; 10 mg per day, week 3): −46%
Relative change (% from baseline) in hot flush weekly weighted score, mean (section B analysis) (post-menopausal women [10]; 10 mg per day, week 4): −53%
Relative change (% from baseline) in hot flush weekly weighted score, mean (section B analysis) (post-menopausal women [10]; 10 mg per day, week 5): −57%
Relative change (% from baseline) in hot flush weekly weighted score, mean (section B analysis) (post-menopausal women [10]; 10 mg per day, week 6): −62%
Relative change (% from baseline) in hot flush weekly weighted score, mean (section B analysis) (post-menopausal women [10]; 10 mg per day, week 7): −64%
Relative change (% from baseline) in hot flush weekly weighted score, mean (section B analysis) (post-menopausal women [10]; 10 mg per day, week 8): −66%
Relative change (% from baseline) in hot flush weekly weighted score, mean (section B analysis) (post-menopausal women [10]; 10 mg per day, week 9): −66%
Relative change (% from baseline) in hot flush weekly weighted score, mean (section B analysis) (post-menopausal women [10]; 10 mg per day, week 10): −68%
Relative change (% from baseline) in hot flush weekly weighted score, mean (section B analysis) (post-menopausal women [10]; 10 mg per day, week 11): −68%
Relative change (% from baseline) in hot flush weekly weighted score, mean (section B analysis) (post-menopausal women [10]; 10 mg per day, week 12): −69%
Relative change (% from baseline) in hot flush weekly weighted score, mean (post-menopausal women [10]; 15 mg per day, week 0): 0%
Relative change (% from baseline) in hot flush weekly weighted score, mean (section B analysis) (post-menopausal women [10]; 15 mg per day, week 0): 0%
Relative change (% from baseline) in hot flush weekly weighted score, mean (section B analysis) (post-menopausal women [10]; 15 mg per day, week 1): −22%
Relative change (% from baseline) in hot flush weekly weighted score, mean (section B analysis) (post-menopausal women [10]; 15 mg per day, week 2): −45%
Relative change (% from baseline) in hot flush weekly weighted score, mean (section B analysis) (post-menopausal women [10]; 15 mg per day, week 3): −56%
Relative change (% from baseline) in hot flush weekly weighted score, mean (section B analysis) (post-menopausal women [10]; 15 mg per day, week 4): −66%
Relative change (% from baseline) in hot flush weekly weighted score, mean (section B analysis) (post-menopausal women [10]; 15 mg per day, week 5): −70%
Relative change (% from baseline) in hot flush weekly weighted score, mean (section B analysis) (post-menopausal women [10]; 15 mg per day, week 6): −72%
Relative change (% from baseline) in hot flush weekly weighted score, mean (section B analysis) (post-menopausal women [10]; 15 mg per day, week 7): −75%
Relative change (% from baseline) in hot flush weekly weighted score, mean (section B analysis) (post-menopausal women [10]; 15 mg per day, week 8): −76%
Relative change (% from baseline) in hot flush weekly weighted score, mean (section B analysis) (post-menopausal women [10]; 15 mg per day, week 9): −78%
Relative change (% from baseline) in hot flush weekly weighted score, mean (section B analysis) (post-menopausal women [10]; 15 mg per day, week 10): −77%
Relative change (% from baseline) in hot flush weekly weighted score, mean (section B analysis) (post-menopausal women [10]; 15 mg per day, week 11): −79%
Relative change (% from baseline) in hot flush weekly weighted score, mean (section B analysis) (post-menopausal women [10]; 15 mg per day, week 12): −81%
